Values joined by “and” are separate entries in the source; they are usually repeats but may differ in a detail not shown here. Equal entries are not always repeated.
Assays:
[1] = tested on: aortic ring microvessel sprouting; test: Aortic ring assay; design: species or system mouse; conditions: 100 nM, VEGF 30 ng/ml
Description: Angiogenesis is a complex intercellular process involving the organization of various cells.

HCT116 tumors = test: Tumor blood flow, laser Doppler, HCT116 tumors; type: in vivo, mouse; conditions: Bevacizumab 5 (mg/Kg), individual values
Description: (§1) Tumor growth, apoptosis, proliferation, and/or the angiogenic index of the developed tumors were first evaluated.
(§2) (A) Scheme and workflow of apelin-dm preclinic studies. […] (B–D) Error bars indicate s.e.m. center values indicate mean (Mann–Whitney U test). […] The percentage of relative staining intensity corresponding to CD31, Ki67, and BIM expression in CT-26 and MC-38 tumors of treated mice are shown in (I–N). Scale bar, 100 µm. Data represent mean ± s.e.m. of 3–4 independent experiments. P values were calculated with the Student t test in GraphPad. […] Quantification of tumor area (P) and vascularized area (Q) relative to control untreated CAMs (n = 3 CAM per group) assigned 100%. Data represent mean ± s.e.m. P values were calculated with the Student t test in GraphPad. […] (S, T) The average blood flow expressed in % relative to blood flow measured in […] (S) and MDA-MB231 (T) developed tumors. Data represent mean ± s.e.m. of 3–4 independent experiments. P values were calculated with the Student t test in GraphPad. Source data are available online for this figure.
(§3) Additional experiments involved injecting 1 × 10^6 control CT-26/MC-38/MDA-MB231 cells into BALB/c, C57BL/6, or nude mice, respectively. […] LASER Doppler imaging assessed total blood flow, with FlowR® Hemodynamics visualization used for analysis. Results were expressed as % relative to pre-treatment tumor blood flow.

MDA-MB-231 tumors = test: Tumor blood flow, laser Doppler, MDA-MB-231 tumors; type: in vivo, mouse; conditions: Bevacizumab 5 (mg/Kg), individual values
Description: as §1, §2, §3

[2] = in vitro and in CAM assays; ref Ljoki et al, 2022; Ademi et al, 2021; cited from earlier work
HUVEC [3] = test: Tube-like formation assay; conditions: read-out: EC50 (reduction of 50% of junction number); HUVEC on Geltrex, 18h treatment, 5 nM to 5 μM, GraphPad Prism
HUVEC [4] = test: HUVEC proliferation with VEGF, IncuCyte confluence; type: cell-based, human
Description: Red arrows indicate the direction of vessel formation. […] All data are representative of three independent experiments. […] The two Furin cleavage sites are shown. […] (S–U) Plasmon waveguide resonance (PWR). […] Source data are available online for this figure.

HUVEC [5] = test: VEGF-induced migration of HUVECs; type: cell-based, human; conditions: VEGF 30 ng/ml, apelin-dm 100 nM, individual values; control column 95-118
ERK = conditions: VEGF 30ng/mL, apelin-dm 100 nM, individual values n = 3

**Q.** With Bevacizumab as the substance, how does the “VEGF-induced aortic ring sprouting” value [1] read?
**A.** apelin-dm was comparable in effect to Bevacizumab

**Q.** What about the “tumor blood flow, % relative” value (HCT116 tumors) of the same substance?
**A.** 86 and 65 and 70 and 63 and 59

**Q.** What about the “tumor blood flow, % relative” value (MDA-MB-231 tumors) of the same substance?
**A.** 82 and 75 and 69 and 51

**Q.** What about the “concentration with inhibitory effects” value [2] of the same substance?
**A.** around 100 nM

**Q.** What about the EC50 (HUVEC [3]) of the same substance?
**A.** 83 nM and 130 nM

**Q.** With VEGF as the substance, how does the HUVEC confluence (HUVEC [4]; 0 h, VEGF 30 ng/ml or apelin-dm 100 nM, means, n = 6 wells) read?
**A.** 10

**Q.** What about the HUVEC confluence (HUVEC [4]; 24 h) of the same substance?
**A.** 19

**Q.** What about the HUVEC confluence (HUVEC [4]; 48 h) of the same substance?
**A.** 33

**Q.** And the HUVEC confluence (HUVEC [4]; 72 h)?
**A.** 55

**Q.** And the HUVEC confluence (HUVEC [4]; 96 h)?
**A.** 75

**Q.** And the HUVEC confluence (HUVEC [4]; 120 h)?
**A.** 82

**Q.** What about the HUVEC migration (HUVEC [5]) of the same substance?
**A.** 160 and 250 and 188 and 208 and 299 and 320 and 199

**Q.** And the “ERK phosphorylation relative to control untreated HUVEC assigned 100%” value (ERK)?
**A.** 144.293 and 157.045 and 122.733

Source: paper PMC11904221 (EMBO Molecular Medicine, 2025)
